Assay results as given in ChEMBL document CHEMBL3879908, “Pyrrolidinone carboxamide derivatives” (2014).

target: T1, Chemerin-like receptor 1 (Homo sapiens, UniProt Q99788); experiment: Displacement of [125I]-chemerin from ChemR23 (unknown origin) transfected in mouse BaF3 cells after 3 hrs by scintillation counting method; assay type: cell-based
T1 sequence (Q99788 whole entry): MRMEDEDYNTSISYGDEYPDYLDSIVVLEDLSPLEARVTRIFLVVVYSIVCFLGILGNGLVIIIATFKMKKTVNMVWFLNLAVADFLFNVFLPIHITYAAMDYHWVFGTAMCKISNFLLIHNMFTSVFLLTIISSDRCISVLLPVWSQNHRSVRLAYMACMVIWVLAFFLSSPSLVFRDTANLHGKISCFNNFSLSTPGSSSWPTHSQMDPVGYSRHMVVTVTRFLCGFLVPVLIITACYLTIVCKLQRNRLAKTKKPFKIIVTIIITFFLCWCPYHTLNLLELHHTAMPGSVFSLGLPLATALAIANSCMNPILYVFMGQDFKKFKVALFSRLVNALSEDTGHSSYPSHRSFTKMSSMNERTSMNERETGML

Compound	IC50
Cc1cccc(C)c1N1CC(C(=O)Nc2cc(C(F)(F)F)cc(C(F)(F)F)c2)(C2CCCC2)CC1=O (centres undefined)	≤ 30 nM
CCc1ccccc1N1CC(C(=O)Nc2cc(C(F)(F)F)cc(C(F)(F)F)c2)CC1=O (centres undefined)	30 to 300 nM
Cc1cccc(C)c1N1CC(CN(C)C)(C(=O)Nc2cc(C(F)(F)F)cc(C(F)(F)F)c2)CC1=O (centres undefined)	30 to 300 nM
CCOc1cc(NC(=O)[C@]2(CC)CN(c3c(C)cccc3C)C(=O)[C@H]2C)cc(C(F)(F)F)c1	30 to 300 nM
Cc1cccc(C)c1N1C[C@](C(=O)Nc2cc(C(F)(F)F)cc(C(F)(F)F)c2)(N(C)C)CC1=O	≤ 30 nM
Cc1cccc(C)c1N1C[C@@](CN(C)CC2CC2)(C(=O)Nc2cc(C(F)(F)F)cc(C(F)(F)F)c2)[C@H](C)C1=O	≤ 30 nM
Cc1cccc(C)c1N1C[C@@](CN(CCF)CC2CC2)(C(=O)Nc2cc(C(F)(F)F)cc(C(F)(F)F)c2)[C@H](C)C1=O	≤ 30 nM
Cc1ccc(N2CC(C(=O)Nc3cc(C(F)(F)F)cc(C(F)(F)F)c3)CC2=O)c(C)c1 (centres undefined)	30 to 300 nM
Cc1cccc(CCN2CCCC2)c1N1CC(C(=O)Nc2cc(C(F)(F)F)cc(C(F)(F)F)c2)(C(C)C)CC1=O (centres undefined)	300 to 6000 nM
CC[C@@]1(C(=O)Nc2cc(N3CCCC3)cc(C(F)(F)F)c2)CN(c2c(C)cccc2C)C(=O)[C@H]1C	30 to 300 nM
Cc1cccc(C)c1N1C[C@](C)(C(=O)Nc2cc(C(F)(F)F)cc(C(F)(F)F)c2)[C@H](C)C1=O	30 to 300 nM
Cc1cccc(C)c1N1C[C@@](CN2CCC(F)CC2)(C(=O)Nc2cc(C#N)cc(C(F)(F)F)c2)[C@H](C)C1=O	≤ 30 nM
Cc1cccc(C)c1N1C[C@@](CN2CCC(F)(F)CC2)(C(=O)Nc2cc(F)cc(C(F)(F)F)c2)[C@H](C)C1=O	30 to 300 nM
CC[C@@]1(C(=O)Nc2cc(C3CC3)cc(C(F)(F)F)c2)CN(c2c(C)cccc2C)C(=O)[C@H]1C	≤ 30 nM
